In patent US9533965B2, “2-arylbenzofuran-7-formamide compounds, preparation method and use thereof” (SHANGHAI INSTITUTE OF MATERIA MEDICA, CHINESE ACADEMY OF …, priority 2012, dated 2017):
Values joined by “and” are separate entries in the source; they are usually repeats but may differ in a detail not shown here. Equal entries are not always repeated. Where two headings read alike, the source gives them in different places.

What was measured:
[1] = target: T1, TNKS2 (Homo sapiens, UniProt Q9H2K2); assay: Enzymatic inhibition on the PARP family members (ELISA), TNKS2; type: biochemical; settings: PARP family panel, 30° C.
T1 sequence (Q9H2K2 1-1166): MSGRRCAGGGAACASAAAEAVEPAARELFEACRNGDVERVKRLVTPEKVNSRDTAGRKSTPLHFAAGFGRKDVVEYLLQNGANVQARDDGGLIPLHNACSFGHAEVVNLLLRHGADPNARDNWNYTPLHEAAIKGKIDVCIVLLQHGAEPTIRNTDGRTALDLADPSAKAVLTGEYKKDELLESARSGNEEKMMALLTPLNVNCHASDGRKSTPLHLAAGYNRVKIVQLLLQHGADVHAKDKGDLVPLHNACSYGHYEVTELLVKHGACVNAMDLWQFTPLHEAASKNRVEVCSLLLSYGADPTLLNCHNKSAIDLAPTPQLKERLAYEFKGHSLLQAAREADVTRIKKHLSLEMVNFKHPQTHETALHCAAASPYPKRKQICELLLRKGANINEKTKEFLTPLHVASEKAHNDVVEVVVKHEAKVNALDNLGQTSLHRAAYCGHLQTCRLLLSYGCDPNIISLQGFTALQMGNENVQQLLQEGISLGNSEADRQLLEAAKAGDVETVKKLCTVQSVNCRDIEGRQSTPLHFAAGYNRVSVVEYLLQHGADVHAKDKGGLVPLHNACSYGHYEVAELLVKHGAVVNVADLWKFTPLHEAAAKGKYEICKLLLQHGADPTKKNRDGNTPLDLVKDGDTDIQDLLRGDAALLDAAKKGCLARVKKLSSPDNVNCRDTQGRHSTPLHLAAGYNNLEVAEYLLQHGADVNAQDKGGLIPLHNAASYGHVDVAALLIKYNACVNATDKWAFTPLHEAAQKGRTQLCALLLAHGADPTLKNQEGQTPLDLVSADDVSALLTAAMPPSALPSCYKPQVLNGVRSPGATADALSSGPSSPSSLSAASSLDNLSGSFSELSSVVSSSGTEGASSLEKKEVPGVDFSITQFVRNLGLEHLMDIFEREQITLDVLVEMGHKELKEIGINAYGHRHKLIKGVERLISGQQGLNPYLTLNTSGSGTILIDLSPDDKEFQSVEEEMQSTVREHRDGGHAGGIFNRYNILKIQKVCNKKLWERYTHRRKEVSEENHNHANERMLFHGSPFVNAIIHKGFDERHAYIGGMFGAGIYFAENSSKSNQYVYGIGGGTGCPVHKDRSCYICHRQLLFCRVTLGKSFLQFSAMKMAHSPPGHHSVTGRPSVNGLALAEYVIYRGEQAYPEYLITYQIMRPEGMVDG

[2] = target: T2, PARP1 (Homo sapiens, UniProt P09874); assay: Enzymatic inhibition on the PARP family members (ELISA), PARP1; type: biochemical
T2 sequence (P09874 whole entry): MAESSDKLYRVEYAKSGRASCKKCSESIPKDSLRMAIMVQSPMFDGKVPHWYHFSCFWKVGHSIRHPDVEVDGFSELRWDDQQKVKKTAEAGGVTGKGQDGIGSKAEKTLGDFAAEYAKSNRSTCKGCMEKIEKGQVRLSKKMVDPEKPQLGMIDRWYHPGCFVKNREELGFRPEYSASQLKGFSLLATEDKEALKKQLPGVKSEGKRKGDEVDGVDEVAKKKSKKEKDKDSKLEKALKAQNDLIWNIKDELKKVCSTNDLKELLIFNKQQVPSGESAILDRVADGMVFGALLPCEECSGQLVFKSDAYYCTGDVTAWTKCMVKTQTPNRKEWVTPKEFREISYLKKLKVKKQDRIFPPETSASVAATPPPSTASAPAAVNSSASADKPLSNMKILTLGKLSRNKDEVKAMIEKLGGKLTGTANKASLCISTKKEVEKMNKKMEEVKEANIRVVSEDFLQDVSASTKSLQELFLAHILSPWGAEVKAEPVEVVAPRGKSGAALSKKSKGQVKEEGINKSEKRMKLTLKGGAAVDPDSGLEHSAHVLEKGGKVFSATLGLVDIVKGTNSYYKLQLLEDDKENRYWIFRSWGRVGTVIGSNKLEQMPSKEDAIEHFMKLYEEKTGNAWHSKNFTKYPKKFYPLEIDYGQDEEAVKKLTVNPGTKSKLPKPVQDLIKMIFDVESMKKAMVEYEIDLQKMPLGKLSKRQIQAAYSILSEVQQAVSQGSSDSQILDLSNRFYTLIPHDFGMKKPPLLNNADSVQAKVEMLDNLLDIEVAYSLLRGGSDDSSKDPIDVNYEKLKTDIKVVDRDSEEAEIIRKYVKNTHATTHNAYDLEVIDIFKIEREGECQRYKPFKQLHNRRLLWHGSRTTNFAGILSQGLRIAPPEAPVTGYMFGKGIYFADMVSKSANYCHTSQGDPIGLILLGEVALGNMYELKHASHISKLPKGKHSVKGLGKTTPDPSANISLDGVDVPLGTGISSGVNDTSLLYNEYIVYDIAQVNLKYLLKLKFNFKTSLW

[3] = Preliminary pharmacokinetic experiment in rats by gavage; type: in vivo, SD rats; settings: 10 mg/kg by gavage
Method: Healthy SD rats (supplied by Shanghai Sippr-BK Lab. Animal Co. Ltd, the Production License Number for the experimental animals: SCXK (hu), 200-220 g of weight, male) were divided into groups randomly and administrated by gavage, respectively. The compound was dissolved in normal saline.
The rats fasted for 12 h and could drink water ad libitum before experiment. 2 h after dosing, the rats were provided with food all together.
The time point for collecting blood samples and the sample processing are listed as follows.
Intragastric administration: 0.25, 0.5, 1.0, 2.0, 3.0, 5.0, 7.0, 9.0 and 24 h after administration: 0.3 mL venous blood was taken from retrobulbar venous plexus of the rat and loaded into heparinization tubes. After being centrifuged at 11000 rpm for 5 min, the plasma was separated and frozen at −20° C. in a refrigerator.

[4] = system: Chinese hamster lung fibroblast cell line VC8 (BRCA2−/−); assay: In vitro cell proliferation inhibition (MTT), VC8 cells; type: cell-based; settings: Cricetulus griseus, V-C8, 72 h, MTT, 72 h, VC8 (BRCA2−/−); read-out: VC8 cell IC50
[5] = target: T2, PARP1; assay: PARP1 enzymatic inhibition at molecular levels (ELISA); settings: ELISA IC50, PARP1 enzyme, molecular level

- IC50 [1]: 1300 nM
- inhibitory activity on PARP1/2 relative to other isoenzymes in the family ([2]; PARP1/2 versus PARP3, TNKS1, TNKS2, PARP6): at least 400 times
- IC50 ([2]; PARP family panel): 3.2 nM
- eliminate rate in vivo [3]: moderate
- MRT ([3]; 10 mg/kg): 3.82 h and 3.34 h and 5.57 h and 3.04 h
- AUC0-∞ ([3]; 10 mg/kg, mean): 471 ng·h/mL
- bioavailability ([3]; male, Sprague-Dawley (SD), rat, plasma, po, read-out: F (absolute bioavailability)): 58.9%
- AUC(0-inf) ([3]; male, Sprague-Dawley (SD), rat, plasma, po, 10 mg/kg): 404 ng·h/mL
- AUC0-t ([3]; male, Sprague-Dawley (SD), rat, plasma, po, 10 mg/kg, read-out: AUC0-t): 452 ± 103 ng·h/mL
- MRT ([3]; male, Sprague-Dawley (SD), rat, plasma, po, 10 mg/kg, read-out: MRT): 3.94 ± 1.13 h
- IC50 [5]: 44.8 ± 12.5 nM
Compound: CNCc1ccc(-c2cc3cc(F)cc(C(N)=O)c3o2)cc1 [compound 5b, 5-fluoro-2-{4-[(methylamino)methyl]phenyl}benzofuran-7-carboxamide]
- AUC0-t ([3]; 10 mg/kg): 394 ng·h/mL and 587 ng·h/mL and 352 ng·h/mL and 474 ng·h/mL
- AUC0-∞ ([3]; 10 mg/kg): 595 ng·h/mL and 407 ng·h/mL and 478 ng·h/mL
- IC50 [4]: 590 ± 150 nM
